Where a name gives a salt, the structure may show the parent alone.

Holding throughout (type): physicochemical
Data set [1] is described as follows: Water solubility, HPLC external standard method. The protocol:
Using external standard method, the product of Example 1 was tested with HPLC, compared with agomelatine crystalline form II.

Data set [2] is described as follows: Stability test (Chinese Pharmacopoeia): affecting factors test, open container for 10 days. The following applies: open container 10 days; for Water: initial 6.10%; for C1: initial 11.86%; for purity: initial purity 99.72%. The protocol:
(§1) The method for stability test as described in Chinese Pharmacopoeia was used in this test. • 1) Affecting factors test (in open container for 10 days): high temperature (60° C.), photostability under strong light (45001×), high humidity (92.5% RH at 25° C.) • 2) Accelerated test (in closed container for 6 months): at 40° C., humidity: 75% RH • 3) Long-term test (in closed container for 9 months): at 25° C., humidity: 60% RH

Data set [3] can be described thus: Stability test: product placed in an incubator at 40° C. for 30 days, determined with HPLC. To be noted: 40° C. incubator. The protocol:
Chromatographic conditions: C18 column; mobile phase: 10 mmol/L phosphate buffer (adjusted to pH 7.0 with NaOH): acetonitrile=2:7 (v/v); column temperature: 40° C.; detection wavelength: 220 nm; internal standard method was used on the products of Examples 1 and 2.
Solutions of the products at 1 mg/mL were prepared with the mobile phase. 10 μL of each solution was injected into the liquid chromatograph system and chromatograms were recorded. The results of the purity are shown in Examples 1 and 2.
Some of the product of Example 1 was placed in an incubator at 40° C. for 30 days to determine its stability with HPLC.

The nature of data set [4]: Stability test (Chinese Pharmacopoeia): accelerated test, closed container for 6 months. As for the experimental part:
as §1

Data set [5] can be described thus: Stability test (Chinese Pharmacopoeia): long-term test, closed container for 9 months. As for the experimental part: as §1
The mark [6] stands for this setting: High humidity (92.5% RH at 25° C.).

As to `COc1ccc2cccc(CCNC(C)=O)c2c1` [AG crystalline form II, N-[2-(7-methoxy-1-naphthyl)pethyl]-acetamide, reference compound], the Agomelatine content in data set [1] (In 0.1 N HCl) came out at 0.30 mg/mL; in data set [1] (In pH 7.0 buffer) it was 0.25 mg/mL; in data set [1] (In water) it was 0.26 mg/mL.

With `COc1ccc2cccc(CCNC(C)=O)c2c1` [AG · HCl · H2O, agomelatine hydrochloride hydrate], the Water in data set [2] (setting [6]) was found to be 6.03%; in data set [2] (High temperature (60° C.)), 1.00%; in data set [2] (Strong light (45001×)), 5.95%; in data set [4] (40° C., 75% RH, closed container 6 months, initial 6.10%), 6.02%; in data set [5] (25° C., 60% RH, closed container 9 months, initial 6.10%), 6.00%. The C1 turned out to be 11.63% in data set [2] (setting [6]); 1.75% in data set [2] (High temperature (60° C.)); 11.48% in data set [2] (Strong light (45001×)); 11.65% in data set [4] (40° C., 75% RH, closed container 6 months, initial 11.86%); 11.53% in data set [5] (25° C., 60% RH, closed container 9 months, initial 11.86%). Moreover, the purity in data set [2] (setting [6]) is listed as 99.73%; in data set [2] (High temperature (60° C.)) it was 99.51%; in data set [2] (Strong light (45001×)), 99.67%; in data set [4] (40° C., 75% RH, closed container 6 months, initial purity 99.72%), 99.64%; in data set [5] (25° C., 60% RH, closed container 9 months, initial purity 99.72%), 99.74%. In addition, the Agomelatine content turned out to be 0.40 mg/mL in data set [1] (In 0.1 N HCl, hydrochloride hydrate); 0.30 mg/mL in data set [1] (In pH 7.0 buffer, hydrochloride hydrate); 0.30 mg/mL in data set [1] (In water, hydrochloride hydrate). For the same compound, in data set [1] (in water, in 0.1N HCl, or in pH 7.0 buffer), the “solubility compared with agomelatine per se (in words)” value was “better solubility”. The “stability with HPLC” value stood at 99.6% in data set [3] (Day 0), 99.5% in data set [3] (Day 5), 99.5% in data set [3] (Day 10) and 99.5% in data set [3] (Day 30). The “stability (in words)” value in data set [4] (accelerated test) and in data set [5] (long-term test) was “stable” each time.
